# In US10005767B2, “Compositions and methods for inhibition of the JAK pathway” (Rigel Pharmaceuticals, Inc., priority 2009, dated 2018):
# pIC50: −log10 of the molar value. Counter-ions that a name gives are not always drawn.
# System: human primary T-cells, IL-2 stimulated proliferation (JAK-1 and JAK-3 dependent; reported as JAK3 activity)
# Assay: Human primary T-cell proliferation stimulated by IL-2 (Example 3)
# Format: cell-based
# Conditions: Homo sapiens, T-cell, tested under conditions described in Example 3 (IL-2 stimulated human primary T-cell proliferation); read-out: ability to inhibit JAK3 activity, IC50 range (Table V)
# Procedure, shortened: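 Peripheral-blood human T-cells pre-activated via TCR/CD28, IL-2-starved overnight, then cultured 72 h at 37 °C with compound in Yssel's medium containing IL-2 (80 U/mL in cell suspension). Proliferation read as viable-cell ATP by CellTiter-Glo luminescence; reduction versus control taken as JAK pathway inhibition.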
row,SMILES,pIC50
1,"Cc1cc(Nc2ncc(C)c(Nc3ccc4oc(=O)[nH]c4c3)n2)cnc1C [II-153, N2-(2,3-dimethylpyridin-5-yl)-5-methyl-N4-(2-oxo-2,3-dihydro-1,3-benzoxazol-5-yl)-2,4-pyrimidinediamine]",> 6.30
2,"Cc1cnc(Nc2ccc(N3CCN(C)[C@H](C)C3)nc2)nc1Nc1ccc2oc(=O)[nH]c2c1 [II-55, (R)-5-(2-(6-(3,4-dimethylpiperazin-1-yl)pyridin-3-ylamino)-5-methylpyrimidin-4-ylamino)benzo[d]oxazol-2(3H)-one]",> 6.30
3,"COc1ccc(Nc2ncc(C)c(Nc3ccc4oc(=O)[nH]c4c3)n2)cc1-c1ccncc1 [Compound I-486, 5-(2-(4-methoxy-3-(pyridin-4-yl)phenylamino)-5-methylpyrimidin-4-ylamino)benzo[d]oxazol-2(3H)-one formate salt]",> 6.30
4,"Cc1cnc(Nc2cc(C)c(I)c(C)c2)nc1Nc1ccc2oc(=O)[nH]c2c1 [Compound I-527, 5-[2-(4-Iodo-3,5-dimethyl-phenylamino)-5-methyl-pyrimidin-4-ylamino]-3H-benzooxazol-2-one]",> 6.30
5,"Cc1cnc(Nc2ccc(C(=O)NC3CC3)cc2)nc1Nc1ccc2oc(=O)[nH]c2c1 [Compound I-134, N-Cyclopropyl-4-[5-methyl-4-(2-oxo-2,3-dihydro-benzooxazol-5-ylamino)-pyrimidin-2-ylamino]-benzamide formate salt]",> 6.30
6,"Cc1cnc(Nc2ccc(N3CCC(NC(=O)NCc4ccccc4)C3)nc2)nc1Nc1ccc2oc(=O)[nH]c2c1 (stereo not shown) [II-98, 1-benzyl-3-(1-(5-(5-methyl-4-(2-oxo-2,3-dihydrobenzo[d]oxazol-5-ylamino)pyrimidin-2-ylamino)pyridin-2-yl)pyrrolidin-3-yl)urea]",> 6.30
7,"Cc1ccc(Nc2ncc(C)c(Nc3ccc4oc(=O)[nH]c4c3)n2)cc1C(F)(F)F [Compound I-154, 5-[5-Methyl-2-(4-methyl-3-trifluoromethyl-phenylamino)-pyrimidin-4-ylamino]-3H-benzooxazol-2-one]",> 6.30
8,"Cc1cnc(Nc2ccc(N3CCC(NS(C)(=O)=O)C3)nc2)nc1Nc1ccc2oc(=O)[nH]c2c1 (stereo not shown) [II-93, N-(1-(5-(5-methyl-4-(2-oxo-2,3-dihydrobenzo[d]oxazol-5-ylamino)pyrimidin-2-ylamino)pyridin-2-yl)pyrrolidin-3-yl)methanesulfonamide]",> 6.30
9,"Cc1cnc(Nc2ccc(C(N)=O)cc2)nc1Nc1ccc2oc(=O)n(COP(=O)(O)O)c2c1 [Compound I-147, (5-(2-(4-carbamoylphenylamino)-5-methylpyrimidin-4-ylamino)-2-oxobenzo[d]oxazol-3(2H)-yl)methyl dihydrogen phosphate]",> 6.30
10,"Cc1cnc(Nc2cnc(N3CC4CN(CC5CC5)CC4C3)c(F)c2)nc1Nc1ccc2oc(=O)[nH]c2c1 (stereo not shown) [II-52, 5-{2-[6-(5-Cyclopropylmethyl-hexahydro-pyrrolo[3,4-c]pyrrol-2-yl)-5-fluoro-pyridin-3-ylamino]-5-methyl-pyrimidin-4-ylamino}-3H-benzooxazol-2-one]",> 6.30
11,"Cc1cnc(Nc2ccc(OC(F)(F)F)cc2)nc1Nc1ccc2oc(=O)[nH]c2c1 [Compound I-108, N4-(benzoxazolin-2-on-5-yl)-N2-(4-trifluoromethoxyphenyl)-5-methylpyrimidine-2,4-diamine trifluoroacetate salt]",> 6.30
12,"Cc1cnc(Nc2ccc3c(c2)OCC(=O)N3)nc1Nc1ccc2oc(=O)[nH]c2c1 [IV-32, 7-(5-methyl-4-(2-oxo-2,3-dihydrobenzo[d]oxazol-5-ylamino)pyrimidin-2-ylamino)-2H-benzo[b][1,4]oxazin-3 (4H)-one]",> 6.30
13,"Cc1cnc(Nc2cccc(C(C)N3CCC3)c2)nc1Nc1ccc2oc(=O)[nH]c2c1 (stereo not shown) [Compound I-211, 5-(2-(3-(1-(azetidin-1-yl)ethyl)phenylamino)-5-methylpyrimidin-4-ylamino)benzo[d]oxazol-2(3H)-one]",> 6.30
14,"CCOc1ccc(Nc2ncc(C)c(Nc3ccc4oc(=O)[nH]c4c3)n2)cc1Cl [Compound I-194, 5-[2-(3-Chloro-4-ethoxy-phenylamino)-5-methyl-pyrimidin-4-ylamino]-3H-benzooxazol-2-one]",> 6.30
15,"Cc1cnc(Nc2ccc(C(F)(F)F)c(Cl)c2)nc1Nc1ccc2oc(=O)[nH]c2c1 [Compound I-167, 5-[2-(3-Chloro-4-trifluoromethyl-phenylamino)-5-methyl-pyrimidin-4-ylamino]-3H-benzooxazol-2-one]",> 6.30
16,"Cc1cc(C)cc(Nc2ncc(C)c(Nc3cc(C)c4oc(=O)[nH]c4c3)n2)c1 [Compound I-474, 5-(2-(3,5-dimethylphenylamino)-5-methylpyrimidin-4-ylamino)-7-methylbenzo[d]oxazol-2(3H)-one]",> 6.30
17,"Cc1cnc(Nc2ccc3c(c2)CCCC(=O)N3C)nc1Nc1ccc2oc(=O)[nH]c2c1 [IV-34, 5-(5-methyl-2-(1-methyl-2-oxo-2,3,4,5-tetrahydro-1H-benzo[b]azepin-7-ylamino)pyrimidin-4-ylamino)benzo[d]oxazol-2(3H)-one]",> 6.30

# Same assay, conditions: tested under conditions described in Example 3 (IL-2 stimulated human primary T-cell proliferation); read-out: ability to inhibit JAK3 activity, IC50 range (Table V)
row,SMILES,pIC50
1,"Cc1ccc(Nc2ncc(F)c(Nc3ccc4c(c3)oc(=O)n4C)n2)cc1NS(C)(=O)=O [Compound I-86, N2-((3-methylsulfonylamino-4-methyl)phenyl)-N4-(3-methyl-2-oxo-2,3-dihydrobenzo[d]oxazol-6-yl)-5-fluoropyrimidine-2,4-diamine]",< 5.00
2,"COc1cc(Nc2ncc(C)c(Nc3ccc4oc(=O)[nH]c4c3)n2)ccc1C [Compound I-351, N2-(3-methoxy-4-methyl)phenyl-5-methyl-N4-(2-oxo-2,3-dihydro-1,3-benzoxazol-5-yl)-2,4-pyrimidinediamine]",> 6.30
3,"CS(=O)(=O)Nc1cc(Nc2ncc(F)c(Nc3ccc4oc(=O)[nH]c4c3)n2)ccc1F [Compound I-90, N2-((4-fluoro-3-methylsulfonylamino)phenyl)-N4-(2-oxo-2,3-dihydrobenzo[d]oxazol-5-yl)-5-fluoropyrimidine-2,4-diamine]",> 6.30
4,"Cc1cnc(Nc2cccc(N3CCOCC3)c2)nc1Nc1ccc2c(c1)oc(=O)n2C [Compound I-49, N4-(3-methylbenzo[d]oxazol-2(3H)-on-6-yl)-N2-((3-morpholinyl)phenyl)-5-methylpyrimidine-2,4-diamine]",> 6.30
5,"Cc1cnc(Nc2ccc(N3C4CCC3CC(N(C)C)C4)nc2)nc1Nc1ccc2oc(=O)[nH]c2c1 (stereo not shown) [II-137, N2-[2-(3-N,N-dimethylamino-8-azabicyclo[3.2.1]octan-8-yl)pyridin-5-yl]-5-methyl-N4-(2-oxo-2,3-dihydro-1,3-benzoxazol-5-yl)-2,4-pyrimidinediamine]",> 6.30
6,"Cc1cnc(Nc2cc(C)c(C)c(C)c2)nc1Nc1cc(Cl)c2oc(=O)n(COP(=O)(O)O)c2c1 [Compound I-525, N4-[7-chloro-3-(phosphonooxy)methyl-2-oxo-2,3-dihydro-1,3-benzoxazol-5-yl]-5-methyl-N2-(3,4,5-trimethyl)phenyl-2,4-pyrimidinediamine]",5.30 to 6.30
7,"Cc1cnc(Nc2ccc(OCC(=O)OC(C)C)cc2)nc1Nc1ccc2oc(=O)[nH]c2c1 [Compound I-317, N2-[4-(isopropoxycarbonylmethoxy)]phenyl-5-methyl-N4-(2-oxo-2,3-dihydro-1,3-benzoxazol-5-yl)-2,4-pyrimidinediamine]",> 6.30
8,"Cc1cnc(Nc2cccc(OCC(=O)N(C)C)c2)nc1Nc1ccc2oc(=O)[nH]c2c1 [Compound I-326, N2-(3-dimethylaminocarbonylmethoxy)phenyl-5-methyl-N4-(2-oxo-2,3-dihydro-1,3-benzoxazol-5-yl)-2,4-pyrimidinediamine]",> 6.30
9,"CN1CCN(c2ccc(Nc3ncc(F)c(Nc4ccc5c(c4)n(C)c(=O)n5C)n3)cn2)CC1 [II-21, N4-(1,3-dimethylbenzimidazolin-2-on-5-yl)-N2-[2-(4-methylpiperazino)pyridin-5-yl]-5-fluoropyrimidine-2,4-diamine]",5.30 to 6.30
10,"COc1cccc(Nc2ncc(C)c(Nc3ccc4oc(=O)[nH]c4c3)n2)c1 [Compound I-337, N2-(3-methoxy)phenyl-5-methyl-N4-(2-oxo-2,3-dihydro-1,3-benzoxazol-5-yl)-2,4-pyrimidinediamine]",> 6.30
11,"Cc1cnc(Nc2ccc(C#N)c(C(F)(F)F)c2)nc1Nc1ccc2oc(=O)[nH]c2c1 [Compound I-303, N2-(4-cyano-3-trifluoromethyl)phenyl-5-methyl-N4-(2-oxo-2,3-dihydro-1,3-benzoxazol-5-yl)-2,4-pyrimidinediamine]",> 6.30
12,"CCOP(=O)(OCC)N1CCN(c2ccc(Nc3ncc(C)c(Nc4ccc5oc(=O)[nH]c5c4)n3)cn2)C[C@H]1C [II-58, (R)-diethyl 2-methyl-4-(5-(5-methyl-4-(2-oxo-2,3-dihydrobenzo[d]oxazol-5-ylamino)pyrimidin-2-ylamino)pyridin-2-yl)piperazin-1-ylphosphonate]",> 6.30
13,"Cc1cnc(Nc2cc(F)cc(OC(C)(C)C#N)c2)nc1Nc1ccc2oc(=O)[nH]c2c1 [Compound I-416, N2-[3-(1-cyano-1-methyl)ethoxy-5-fluoro]phenyl-5-methyl-N4-(2-oxo-2,3-dihydro-1,3-benzoxazol-5-yl)-2,4-pyrimidinediamine]",> 6.30
14,"Cc1cnc(Nc2cnc(N3CCN4CCC[C@@H]4C3)c(F)c2)nc1Nc1ccc2oc(=O)[nH]c2c1 [II-113, N4-(benzo[d]oxazolin-2(3H)-one-5-yl)-N2-{2-[(8R)-1,4-diazabicyclo[4.3.0]nonane-1-yl]-3-fluoropyridine-5-yl}-5-methyl-2,4-pyrimidinediamine]",> 6.30
